In paper PMC6271218, “Pharmacokinetics, Tissue Distribution and Excretion of Verticinone from F. hupehensis in Rats” (Molecules, 2014):
Like-named read-outs stand apart in the source and are kept apart here.

Key:
[1] = Single-dose plasma pharmacokinetics after i.g. administration; type: in vivo, SD rats; conditions: for bioavailability / AUC(0-inf) / AUC(0-t) / Tmax / MRT last / Vd/F / half-life / Cmax: SD, rat, plasma; for bioavailability: oral, i.g. vs i.v., read-out: absolute (oral) bioavailability; for AUC(0-inf) / AUC(0-t) / Tmax / MRT last / Vd/F / half-life / Cmax: po; for MRT last: read-out: MRT0–t; for Vd/F: read-out: Vz/F; for half-life: read-out: t1/2z (converted); for Cmax: n = 5; for relationship between dosages and AUC0–t in plasma: oral 1, 2 and 4 mg/kg
Description: Pharmacokinetic studies of verticinone after intravenous (i.v.) and intragastrical (i.g.) administration to rats were designed to determine pharmacokinetic parameters and absolute bioavailability. For i.g administration, verticinone was suspended in 0.5% carboxymethyl cellulose sodium (CMC-Na) to final concentrations of 0.2, 0.4 and 0.8 mg/mL. Verticinone was dissolved in 20% ethanol/80% water to final concentration of 0.08 mg/mL for i.v. administration. For the i.v. group, five male and five female rats received a single dose of 0.4 mg/kg. Blood samples (0.25 mL) were obtained at 0, 4, 15, 30, 45, 60, 120, 240, 360, 480, 600 and 720 min after injection. For the single- i.g. group, fifteen male and fifteen female rats were divided into three groups, and each group received a single oral dose of 1, 2 and 4 mg/kg of verticinone, respectively. In addition, another five male and five female rats received multiple oral doses of 4 mg/kg/day, given as 2 mg/kg doses twice a day (one dose in the morning and the second dose 12 h later) for 7 days, then a single oral dose of 2 mg/kg on the eighth day. Blood samples (0.25 mL) were obtained at 0, 5, 15, 30, 45, 60, 90, 120, 240, 360, 480 and 720 min for male rats and at 0, 5, 10, 20, 30, 45, 60, 120, 240, 360, 480 and 720 min for female rats after oral administration (the eighth day for multiple-dose group). Blood samples were then centrifuged at 4000 rpm for 10 min, and the plasma was collected. All plasma samples were frozen and stored at −20 °C until analysis. Verticinone was isolated from plasma by liquid-liquid extraction according to our previously reported procedure.
(§1) The quantification of verticinone was performed by a LC-MS method based on the previously reported method with slight modifications. The liquid chromatography system consisted of a model 2010 chromatograph (Shimadzu, Kyoto, Japan) equipped with a Shim-Pack VP-ODS C18 column (150 mm × 2.0 mm, 5 μm). A Shimadzu 2010 mass spectrometer (Q-array-Octapole-Quadrupole mass analyzer) equipped with an electrospray ionization interface was used for MS detection. The mobile phase consisted of (A) distilled water and (B) methanol, and the flow rate was 0.2 mL/min. Chromatography separation was achieved using a gradient elution program, as follows: 0.03→6.0 min, B% 15→85; 6.0→7.0 min, B% 85→85; 7.0→8.0 min, B% 85→15; 8.0–12.0 min, B% 15→15. The column and autosampler tray temperature were kept constant at 35 °C and 20 °C, respectively. For the determination of verticinone, the positive mode was selected, along with the conditions as follows.
(§2) CDL voltage […], probe voltage 4.5 kV, CDL temperature 250 °C, block temperature 200 °C, gas flow 1.5 L/min. Hupehenine was used as the internal standard (IS). Both verticinone and IS were detected using selected ion monitoring (SIM) at m/z 430.25 for verticinone and m/z 416.30 for hupehenine (IS), with a dwell time of 200 ms. Blank plasma, tissue homogenate, urine, feces homogenate and bile were used to prepare the corresponding calibration curves to avoid different matrix effects.
The pharmacokinetic parameters were calculated by the DAS 2.0 software (Chinese Pharmacological Association, Beijing, China) using a standard non-compartmental method. The Cmax and Tmax were determined from the observed data. The elimination rate constant (ke) was calculated by log-linear regression of verticinone concentrations during the terminal elimination phase and the half-life (t1/2) was calculated as 0.693/ke. The AUC0–t was calculated by the linear trapezoidal method. The AUC0–∞ was calculated as the sum of AUC0–t and the extrapolated part determined by Clast/ke. The total clearance (CL) was calculated as dose/AUC0–∞. The absolute bioavailability (F) was calculated by the following equation: F = [(AUCi.g./AUCi.v.) × (Dosei.v./Dosei.g.)] × 100%. The results were expressed as mean ± SD. Statistical analyses were performed using an unpaired Student’s t-test.

[2] = Tissue distribution study after oral administration; type: in vivo, rats; conditions: for rank order of AUC values for individual tissues: i.g. 2 mg/kg
Description: A single 2 mg/kg oral dose of verticinone was administrated to thirty rats (15 male and 15 female). Rats were sacrificed and tissues (heart, liver, spleen, lung, kidney, brain, stomach, intestine, skin, muscle, fat and gonads) were promptly removed at 0.25, 0.58 and 6 h (n = 10, with 5 male and 5 female) after dosing and washed with saline. Each tissue sample (0.2 g) was homogenized in 5 volumes (v/w) of distilled water. Tissue homogenates were stored at −20 °C until analysis. Verticinone was extracted from tissue homogenate based on the method described for plasma with slight modifications. The evaporated residue was reconstituted in 200 μL methanol, vortexed, followed by centrifugation at 15,000 rpm twice. An aliquot of 10 μL was injected into the LC-MS system for analysis.
as §1
as §2, with “Blank plasma, tissue homogenate, urine, feces homogenate and bile were used to prepare the corresponding calibration curves to avoid different matrix effects.” left out

[3] = Metabolic rate in rat liver microsomes; type: in vitro ADME
[4] = design: method as in PMID 19417735; conditions: mice; cited from earlier work
[5] = i.g. 1 mg/kg single dose, female rats
[6] = i.g. 1 mg/kg single dose, male rats
[7] = i.g. 2 mg/kg single dose, female rats
[8] = i.g. 2 mg/kg single dose, male rats
[9] = i.g. 4 mg/kg single dose, female rats
[10] = i.g. 4 mg/kg single dose, male rats

C[C@H]1CC[C@@H]2N(C1)C[C@H]1[C@@H]3C[C@H]4[C@@H](CC(=O)[C@H]5C[C@@H](O)CC[C@@]54C)[C@@H]3CC[C@@H]1[C@]2(C)O [verticinone, Verticinone]
bioavailability ([1]; female rats): 2.74%
bioavailability ([1]; male rats): 45.8%
AUC(0-inf) [1, 5]: 15.3 ± 3.06 ng·h/mL
AUC(0-t) [1, 5]: 14.5 ± 3.27 ng·h/mL
Tmax [1, 5]: 40.2 ± 18.6 min
MRT last [1, 5]: 3.59 ± 0.18 h
Vd/F [1, 5]: 280 ± 160 L/kg
half-life [1, 5]: 172 ± 77.4 min
AUC(0-inf) [1, 6]: 167 ± 52.5 ng·h/mL
AUC(0-t) [1, 6]: 159 ± 50.1 ng·h/mL
Tmax [1, 6]: 42 ± 6.6 min
MRT last [1, 6]: 3.21 ± 0.34 h
Vd/F [1, 6]: 25.5 ± 9.07 L/kg
half-life [1, 6]: 167 ± 51 min
AUC(0-inf) [1, 7]: 18.8 ± 5.01 ng·h/mL
AUC(0-t) [1, 7]: 17.3 ± 5.4 ng·h/mL
Tmax [1, 7]: 24 ± 21.6 min
MRT last [1, 7]: 3.42 ± 1.22 h
Vd/F [1, 7]: 649 ± 419 L/kg
half-life [1, 7]: 243 ± 149 min
AUC(0-inf) [1, 8]: 475 ± 119 ng·h/mL
AUC(0-t) [1, 8]: 446 ± 111 ng·h/mL
Tmax [1, 8]: 87 ± 85.2 min
MRT last [1, 8]: 3.62 ± 0.37 h
Vd/F [1, 8]: 19.4 ± 6.7 L/kg
half-life [1, 8]: 183 ± 46.8 min
AUC(0-inf) [1, 9]: 27.1 ± 5.78 ng·h/mL
AUC(0-t) [1, 9]: 26.6 ± 5.84 ng·h/mL
Tmax [1, 9]: 24 ± 21 min
MRT last [1, 9]: 2.04 ± 0.21 h
Vd/F [1, 9]: 387 ± 74.2 L/kg
half-life [1, 9]: 110 ± 34.8 min
AUC(0-inf) [1, 10]: 769 ± 257 ng·h/mL
AUC(0-t) [1, 10]: 737 ± 236 ng·h/mL
Tmax [1, 10]: 42 ± 6.6 min
MRT last [1, 10]: 3.19 ± 0.48 h
Vd/F [1, 10]: 18.6 ± 9.14 L/kg
half-life [1, 10]: 140 ± 51.6 min
Cmax [1, 5]: 3.67 ± 1.13 ng/mL
Cmax [1, 6]: 38.9 ± 9.34 ng/mL
Cmax [1, 7]: 7.45 ± 7.1 ng/mL
Cmax [1, 8]: 94.8 ± 17.1 ng/mL
Cmax [1, 9]: 12.6 ± 5.14 ng/mL
Cmax [1, 10]: 176 ± 45.2 ng/mL
relationship between dosages and AUC0–t in plasma ([1]; female rats): nonlinear dependence
relationship between dosages and AUC0–t in plasma ([1]; male rats): linear dependence
rank order of AUC values for individual tissues ([2]; female rats): intestine > stomach > liver > kidney > spleen > lung > gonad > heart > muscle > skin > fat > brain
rank order of AUC values for individual tissues ([2]; male rats): intestine > stomach > liver > kidney > spleen > lung > heart > gonad > muscle > skin > fat > brain
concentration found in the brain ([2]; oral 2 mg/kg, rats, 15 min, 35 min and 6 h): very little was found in the brain
metabolic rate in rat liver microsomes ([3]; female rats): 3.76 × 10^−3 nmol/min/mg protein
metabolic rate in rat liver microsomes, females faster than males ([3]; females vs males): about 1.7 times
metabolic rate in rat liver microsomes ([3]; male rats): 2.18 × 10^−3 nmol/min/mg protein
addictive effect [4]: no addictive effect
